Legend:
senescent A549 cells = assay: Survival of senescent A549 cells treated with supernatant from death-induced cancer cells, Example 14; assay type: cell-based, human; settings: for viability at 30 µM: Homo sapiens
Experimental: In the same way as Examples 12 and 13, senescence of cancer (A549) cells was induced by treatment with doxorubicin or the control group (DMSO), and the cells were cultured. The cells were treated with LX-405 at a concentration of 30 μM. 3 days later, cell viability was measured using CellTiter-Glo Luminescent Cell Viability Assay (Promega) or an optical microscope. In the same manner as in Example 13, the medium supernatants comprising secreted fluid from normally proliferating and senescent cancer cells was obtained. Normally proliferating and senescent-induced cancer cells were treated with the medium supernatants.
Furthermore, other test compounds were used in the same manner in Example 12 above at high concentrations of 30 μM, 90 μM, and 270 μM, respectively, and the cultured medium supernatant comprising secreted fluid from aged cancer cells that were killed were obtained. As a result of measuring the degree of death of aged cancer cells, it was confirmed that aged cancer cells can be effectively removed, as shown in Example 12.

[1] = tested on: proliferating foreskin cells; assay: Survival of proliferating human cells treated with supernatant (secreted fluid) from death-induced cells, Example 13; assay type: cell-based; settings: 3 days; for viability at 30 µM: Homo sapiens, 72 h
Experimental: (§1) After 3 days, cell viability was measured using CellTiter-Glo Luminescent Cell Viability Assay (Promega) or light microscopy.
After treating cells with the test compound at a high concentration that induces the death of most cells in both non-senescence-induced and senescence-induced cells, the cells were washed three times with PBS to remove the test compound, and replaced with fresh medium and cultured for an additional 3 hours at the time when the compound has entered into the cell but has not yet induced cell death (approximately 1 to 3 hours after compound treatment). During this additional culture, by checking with an optical microscope, etc., the medium supernatants containing secreted fluid from normally proliferating and senescent cells in which cell death was induced were obtained. The obtained medium supernatant was replaced with the medium of normally proliferating and senescent cells, respectively, and cell survival rate was measured after 3 days.

[2] = tested on: non-senescent proliferating human cells; assay: Effect on non-senescent (proliferating) human cells; assay type: cell-based; settings: normally proliferating foreskin cells; 30 μM, 3 days
Excerpt: Based on the results of Example 10 of WO2023-085787 A1, compounds that induce the death of senescent cells through a mechanism similar to LX-112, unlike existing senescent cell removers such as ABT-263, were screened based on HMGN1. […] The following test compounds were synthesized by and purchased from Medchemexpress, Selleckchem, Cayman, Medkoo, Sigma, Molport, Enzo, TCI, Santa Cruz, REONSIMI, Abcam, Alfa Aesar, APExBIO, BOCSCI, Merck, Thermo Fisher Scientific, R&D Systems, ChemFaces, Aobious, etc. […] In cells in which senescence was not induced by treatment with the control group (DMSO), the amount of HMGN1 above the effective value (sensitivity: 35 pg/ml), analysis limit, was not detected in both untreated and treated conditions with the test compound. On the other hand, in cells where senescence was induced by treatment with doxorubicin, the amount of HMGN1 was measured at 80 to 90 pg/ml. […]
as §1
Using the same method as Example 11, compounds that induce senescent cell death through a mechanism similar to that of LX-112 (ethaselen (1,2-[bis(1,2-benzisoselenazolone-3 (2H)-ketone)]ethane)) were screened based on HMGN1 and others. […] On the other hand, in cells senescent with doxorubicin, an amount of HMGN1 of […] was measured. […]

[3] = tested on: obesity-induced aged C57BL6J mice; assay: Open field test in obese aged mice given senescent cells killed by test compound, Example 16; assay type: in vivo, mouse; settings: senescent preadipocytes killed by test compound sc; no administration = 100%
[4] = tested on: doxorubicin-induced aged C57BL6J mice; assay: Lipofuscin staining in muscle of doxorubicin-aged mice, Example 22-4, Table 33; assay type: in vivo, mouse; settings: staining area, untreated aged = 100
Experimental: Eight-week-old male C57BL6J mice (KRIBB Laboratory Animal Resource Center) were acclimated to the experimental environment for one week. Afterwards, the anticancer agent doxorubicin was administered intraperitoneally at a concentration of 10 mg/kg, inducing aging for more than 10 days. The aging-induced mice were randomly assigned to experimental and control groups. LX-403 was mixed with a 10% ethanol solution of PEG400 and administered orally at a concentration of 25 mg/kg or intradermally at a concentration of 1 μM for 21 days. LX-1801 was mixed in distilled water with 4% DMSO, 30% PEG300, and 5% Tween80 and administered intradermally at a concentration of 0.4 μM daily for 21 days. LX-2001 was mixed in PBS and administered intradermally at a concentration of 2 μM daily for 21 days. LX-2002 was mixed in distilled water with 4% DMSO, 30% PEG300, and 5% Tween80 and administered intradermally at a concentration of 2 μM daily for 21 days. […] LX-2005 was mixed in distilled water with 4% DMSO, 30% PEG300, and 5% Tween80 and administered intradermally at a concentration of 90 μM daily for 21 days. LX-2007 was mixed in distilled water with 4% DMSO, 30% PEG300, and 5% Tween80 and administered intradermally at a concentration of 90 μM daily for 21 days. […]

For `COC(=O)c1ccc([C@H]2c3[nH]c4ccccc4c3C[C@H](C(=O)OC)N2C(=O)CCl)cc1` [LX-405], the Survival (senescent A549 cells; A549, supernatant from No Cells) was 98.2 (±2.8) %, the viability at 30 µM (senescent A549 cells; A549, A549, supernatant from death-induced proliferating cells) was 78.8% and the viability at 30 µM (senescent A549 cells; A549, A549, supernatant from death-induced senescent cells) was 72.5%. For the same molecule, the viability at 30 µM ([1]; supernatant from death-induced proliferating cells) was 104%, the viability at 30 µM ([1]; supernatant from death-induced senescent cells) was 100% and the Survival ([1]; supernatant from No Cells) was 99.4 (±2.4) %. The “induced death of cells” value [2] was “induced the death of most cells”.

For `S=C(N/N=C1\CCCc2cccnc21)N1CCN(c2ccccn2)CC1` [LX-801], the “Open Field Test Time in Center” value [3] was 216.8 (±12.8) %.

In the case of `O=C1C2CCN(CC2)C1CNC(=O)C(F)(F)F` (stereo not drawn) [LX-5701], the “Lipofuscin (%), Muscle” value [4] is reported as 64 (±13.1) %.
